{"source": "patent US6060616A", "about": "“Bis-platinum complexes with polymethylene derivatives as ligands having antitumor activity” (Hoffmann-La Roche Inc., priority 1998, dated 2000)", "origin": "cited, not measured here", "conditions": "clinical use, background", "data": [{"smiles": "N.N.O=C([O-])C1(C(=O)[O-])CCC1.[Pt+2]", "note": "[carboplatin, [Pt(NH3)2(CBDCA)]]", "values": [{"measurement": "nephrotoxicity", "result": "reduction in the nephrotoxic effects"}]}]}
